Measured values from patent EP0357332A2, “Renin inhibitors useful for the treatment of aids by inhibition of HIV protease” (MERCK & CO. INC., priority 1988, dated 1990).

Key:
[1] = target: T1, synthetic protease [amino acid residues 69-167 of the pol open reading frame] (Human immunodeficiency virus type 1 group M subtype B, UniProt P03366); test: Assay for inhibition of synthetic viral protease with peptide substrate Val-Ser-Gln-Asn-Tyr-Pro-Ile-Val (HPLC); assay type: biochemical, HIV; details: pH 5.5, 30°C, 1 hr
T1 construct: amino acid residues 69-167 of the pol open reading frame in Ratner, L. et al, Nature, 313, 277 (1985); made in house; host or cells: chemical synthesis (Merrifield solid-phase), no expression host
Description: Inhibition studies of the reaction of the synthetic protease [amino acid residues 69-167 of the pol open reading frame in Ratner, L. et al, Nature, 313, 277 (1985) and synthesized by Merrifield solid-phase synthesis] with a peptide substrate [Val-Ser-Gln-Asn-Tyr-Pro-Ile-Val, 2 mg/mL when the reaction is initiated] were in 50 mM Na acetate, pH 5.5, at 30°C for 1 hr. Various concentrations of inhibitor in 1.0 µl DMSO were added to 36 µl of assay solution and the reaction initiated by the addition of 4 ul (1.6 µg) of synthetic protease. The reaction was quenched with 160 ul of 12% acetic acid. Products of the reaction were separated by HPLC (VYDAC wide pore 5 cm C-18 reverse phase, acetonitrile gradient, 0.1% trifluoroacetic acid). The extent of inhibition of the reaction was determined from the peak heights of the products. HPLC of the products, independently synthesized, provided quantitation standards and confirmation of the product composition.

synthetic viral protease = target: T2, synthetic viral protease (Human immunodeficiency virus type 1 group M subtype B, UniProt P03366); test: Inhibition of beta-casein hydrolysis by synthetic viral protease (14C-beta-casein, TCA soluble counts); assay type: biochemical, HIV; details: 14C-beta-casein substrate, 4 hours
T2 construct: amino acid residues 69-167 of the pol open reading frame in Ratner, L. et al, Nature, 313, 277 (1985); made in house; host or cells: chemical synthesis (Merrifield solid-phase), no expression host
Description: Inhibition of the synthetic viral protease reaction, of Example 2, with ¹⁴C - beta-casein as substrate in lieu of peptide substrates, was performed. Beta-casein (Sigma) was dialysed overnight at 4°C in 40 mM KPO₄, pH 7.0. Four microliters of the substrate (0.31 mg/ml) are used in each 40 µl reaction. After reaction with the protease for 4 hours, 10 µl of 10% bovine serum albumin and 500 µl of 10% trichloroacetic acid are added, the sample placed on ice for 30 min and centrifuged for 10 min at 15,000 g. From the supernatant a 300 µl aliquot is withdrawn and diluted into 7 ml liquid scintillation cocktail. Typical background level of TCA soluble counts (no enzyme added) is 200 and no inhibitor samples give a net signal of 1000 cpm.

[2] = Inh. Conc. 0.01 µM, listed as Cmpd B
[3] = Inh. Conc. 0.1 µM, listed as Cmpd B
[4] = Inh. Conc. 1 µM, listed as Cmpd B
[5] = Inh. Conc. 0.01 µM, listed as Cmpd A
[6] = Inh. Conc. 0.1 µM, listed as Cmpd A
[7] = Inh. Conc. 1 µM, listed as Cmpd A

CC(C)C[C@H](NC(=O)C(Cc1ccccc1)C[C@H](O)[C@H](Cc1ccccc1)NC(=O)[C@H](Cc1ccccc1)NC(=O)[C@H](Cc1ccccc1)NC(=O)OC(C)(C)C)C(=O)N[C@@H](Cc1ccccc1)C(N)=O (single isomer, unassigned) [Compound B, N′-(1,1-Dimethylethoxycarbonyl)-Phe-Phe-5(S)-Amino-4(S)-Hydroxy-6-Phenyl-2(S or R)-(Phenylmethyl)Hexanoyl-Leu-Phe-Amide]
PERCENT INHIBITION ([1]; Inh. Conc. 0.001 µM): 20% | PERCENT INHIBITION [1, 2]: 60% | PERCENT INHIBITION [1, 3]: 100% | PERCENT INHIBITION [1, 4]: 100% | PERCENT INHIBITION ([1]; Inh. Conc. 10 µM): 100% | PERCENT INHIBITION ([1]; Inh. Conc. 100 µM): 100% | PERCENT INHIBITION (synthetic viral protease; Inh. Conc. 0.001 µM): 20% | PERCENT INHIBITION (synthetic viral protease; [2]): 67% | PERCENT INHIBITION (synthetic viral protease; [3]): 97% | PERCENT INHIBITION (synthetic viral protease; [4]): 95% | PERCENT INHIBITION (synthetic viral protease; Inh. Conc. 10 µM, listed as Cmpd B): 91% | PERCENT INHIBITION (synthetic viral protease; Inh. Conc. 100 µM, listed as Cmpd B): 60%

CC(C)C[C@H](NC(=O)C(Cc1ccccc1)C[C@H](O)[C@H](Cc1ccccc1)NC(=O)[C@H](Cc1ccccc1)NC(=O)[C@H](Cc1ccccc1)NC(=O)OC(C)(C)C)C(=O)N[C@@H](Cc1ccccc1)C(N)=O (single isomer, unassigned) [A, N′-(1,1-Dimethylethoxycarbonyl)-Phe-Phe-5(S)-Amino-4(S)-Hydroxy-6-Phenyl-2(R or S)-(Phenylmethyl)Hexanoyl-Leu-Phe-Amide]
PERCENT INHIBITION [1, 5]: 0% | PERCENT INHIBITION [1, 6]: 20% | PERCENT INHIBITION [1, 7]: 40% | PERCENT INHIBITION ([1]; Inh. Conc. 100 µM): 100% | PERCENT INHIBITION (synthetic viral protease; [5]): 0% | PERCENT INHIBITION (synthetic viral protease; [6]): 14% | PERCENT INHIBITION (synthetic viral protease; [7]): 82% | PERCENT INHIBITION (synthetic viral protease; Inh. Conc. 10 µM, listed as Cmpd A): 65% | PERCENT INHIBITION (synthetic viral protease; Inh. Conc. 100 µM, listed as Cmpd A): 97%
